“And” between values parts separate entries of the source, which are not always exact repeats. Equal entries are not always repeated.
Test system: A/Washington/29/2009 (H1N1) H275Y
Format: cell-based, influenza A virus

Row | SMILES | DIF (Difference from Control) [log10TCID50/mL] | Virus titer AVG | Virus titer, replicates 1-3
1 | CCOC(=O)C1=C[C@@H](OC(CC)CC)[C@H](NC(C)=O)[C@@H](N)C1 [Oseltamivir, oseltamivir, reference compound] | -0.92 | 3.92 log10TCID50/mL | 3.75 log10TCID50/mL (2×) and 4.25 log10TCID50/mL
2 | CC1=C(COCCC(C)(C)C)C(=O)N(Nc2ccc(C(F)(F)F)c(Cl)n2)C1=O [felezonexor, 3-[(3,3-dimethylbutoxy)methyl]-1-{[6-chloro-5-(trifluoromethyl) (2-pyridyl)]amino}-4-methylazoline-2,5-dione] | – | 2.67 log10TCID50/mL and 3.83 log10TCID50/mL and 4.50 log10TCID50/mL | 2.75 log10TCID50/mL (2×) and 3.50 log10TCID50/mL and 4.50 log10TCID50/mL (3×) and 2.50 log10TCID50/mL and 3.75 log10TCID50/mL and 4.25 log10TCID50/mL
